Patent US20050112573A1, “Method of detecting toxic substance” (priority 2001, published 2005)

Tested on: yeast genes (level of expressed mRNA)
Assay: DNA chip analysis of expressed mRNA of yeast genes after 2 h culture with a toxic chemical substance
Format: cell-based, Saccharomyces cerevisiae S288C
Experimental: Yeast (Saccharomyces cerevtisiae S288C (α SUC2mal mel gap2 CUP1)) were cultured at 25° C. on YPD medium (yeast extract 1%, polypepton 2%, glucose 2%). One of toxic chemical substances was added to the cell at logarithmic growth phase, and the cell was further cultured for two hours. Cell was cultured without any chemical substance in the same condition, and was used as control. Concentrations of the chemical substances were defined to inhibit the growth of the yeast but not lead to death.
After the completion of cultivation, the culture was centrifuged to collect the cells. To the cells, sodium acetate buffer (50 mM sodium acetate, 10 mM EDTA, 1% SDS) was added, and the mixture was shaken at 65° C. for five minutes, followed by returning to room temperature, and obtaining the supernatant, which procedure was repeated two times. To the supernatant, ½ amount of a solution of phenol/chloroform was added, and the mixture was centrifuged to give a supernatant, which was added with an equal amount of chloroform, and the mixture was centrifuged to give a supernatant. To the supernatant, an equal amount of isopropanol containing 0.3 M sodium acetate was added, and the mixture was allowed to stand at room temperature for 30 minutes, after which the mixture was centrifuged to give a sediment of the whole RNAs. Seventy % ethanol was added to the sediment, and the mixture was again centrifuged to give a sediment, which was then dried and dissolved in water. mRNA was isolated from the whole RNAs as followings. In view of the fact that a poly A chain is attached to the 3′ terminus of mRNA, a polynucleotide having a poly T structure which was immobilized on the surface of latex beads was used to trap the mRNA, and then the mRNA was washed and eluted with spine column (Oligotex-dT30<Super>mRNA Purification Kit, Takara). Reverse transcription of the mRNA was conducted with a reverse transcriptase (Super Script II Reverse Transcriptase; catalogue No. 18064-014, GibcoBRL) using fluorescence-labeled nucleotides to give cDNAs that were introduced with Cy3-dUTP or Cy5-dUTP during the reverse transcription.
The labeled cDNAs were dissolved in TE buffer (10 mM Tris-HCl/1 mM EDTA, pH8.0), and the solution was dropped on the DNA chip containing the whole genes of yeast (DNA Chip Research Inc. Japan) so that the cDNAs were hybridized on the DNA chip at 65° C. for over 12 hours. The fluoresces intensity of the DNA chip was read with a scanner, and the ratio relative to the fluorescence intensity resulting from the absence of chemical substance was estimated as the following, which is shown in Tables 1 to 9: [formula]
In the Tables, “Intensity” indicated in the rightmost column is a value of the level of expressed mRNA of each gene in control cells as divided by the average level of the expressions of the whole genes.

For `CCCCCCCCCCCCOS(=O)(=O)[O-].[Na+]` [(18), sodium lauryl sulfate], the “level of expressed mRNA in the presence of chemical substance/in its absence” value (“level … of chemical substance/in its absence” below) (gene YAL012W) was 0.8, the “The level of expressed mRNA in the presence of chemical substance/absence: YAL014C” value (gene YAL014C) was 1.1 and the “The level of expressed mRNA in the presence of chemical substance/absence: YAL017W” value (gene YAL017W) was 1.2. The “The level of expressed mRNA in the presence of chemical substance/absence: YAL018C” value (gene YAL018C) was 0.9, the “level … of chemical substance/in its absence” value (gene YAL038W) was 1.0 and the “level … of chemical substance/in its absence” value (gene YAL044C) was 1.8. For the same compound, the “The level of expressed mRNA in the presence of chemical substance/absence: YAL049C” value (gene YAL049C) was 1.8, the “level … of chemical substance/in its absence” value (gene YAL054C) was 1.4 and the “The level of expressed mRNA in the presence of chemical substance/absence: YAR047C” value (gene YAR047C) was 1.0. The “The level of expressed mRNA in the presence of chemical substance/absence: YAR064W” value (gene YAR064W) was 0.9, the “level … of chemical substance/in its absence” value (gene YAR071W) was 1.6 and the “level … of chemical substance/in its absence” value (gene YBL001C) was 1.8. For the same compound, the “The level of expressed mRNA in the presence of chemical substance/absence: YBL044W” value (gene YBL044W) was 0.8, the “The level of expressed mRNA in the presence of chemical substance/absence: YBL100C” value (gene YBL100C) was 0.8 and the “The level of expressed mRNA in the presence of chemical substance/absence: YBR012C” value (gene YBR012C) was 1.2. For the same compound, the “The level of expressed mRNA in the presence of chemical substance/absence: YBR013C” value (gene YBR013C) was 1.1, the “level … of chemical substance/in its absence” value (gene YBR014C) was 1.6 and the “level … of chemical substance/in its absence” value (gene YBR023C) was 0.9. For the same compound, the “level … of chemical substance/in its absence” value (gene YBR029C) was 0.8, the “level … of chemical substance/in its absence” value (gene YBR035C) was 1.9 and the “level … of chemical substance/in its absence” value (gene YBR050C) was 1.8. The “The level of expressed mRNA in the presence of chemical substance/absence: YBR051W” value (gene YBR051W) was 0.8, the “The level of expressed mRNA in the presence of chemical substance/absence: YBR063C” value (gene YBR063C) was 1.2 and the “The level of expressed mRNA in the presence of chemical substance/absence: YBR066C” value (gene YBR066C) was 1.2. The “level … of chemical substance/in its absence” value (gene YBR068C) was 1.3, the “level … of chemical substance/in its absence” value (gene YBR111C) was 2.4 and the “The level of expressed mRNA in the presence of chemical substance/absence: YBR124W” value (gene YBR124W) was 0.9. The “The level of expressed mRNA in the presence of chemical substance/absence: YBR129C” value (gene YBR129C) was 1.5, the “level … of chemical substance/in its absence” value (gene YBR145W) was 2.0 and the “The level of expressed mRNA in the presence of chemical substance/absence: YBR162C” value (gene YBR162C) was 1.3. For the same compound, the “level … of chemical substance/in its absence” value (gene YBR183W) was 2.4, the “level … of chemical substance/in its absence” value (gene YBR222C) was 0.9 and the “The level of expressed mRNA in the presence of chemical substance/absence: YBR255W” value (gene YBR255W) was 1.0. For the same compound, the “The level of expressed mRNA in the presence of chemical substance/absence: YBR281C” value (gene YBR281C) was 0.8, the “The level of expressed mRNA in the presence of chemical substance/absence: YBR287W” value (gene YBR287W) was 1.9 and the “level … of chemical substance/in its absence” value (gene YBR299W) was 1.1. For the same compound, the “level … of chemical substance/in its absence” value (gene YCL009C) was 0.8, the “The level of expressed mRNA in the presence of chemical substance/absence: YCL044C” value (gene YCL044C) was 0.6 and the “The level of expressed mRNA in the presence of chemical substance/absence: YCL056C” value (gene YCL056C) was 1.5. The “level … of chemical substance/in its absence” value (gene YCL064C) was 0.3, the “The level of expressed mRNA in the presence of chemical substance/absence: YCR007C” value (gene YCR007C) was 2.1 and the “level … of chemical substance/in its absence” value (gene YCR037C) was 0.9. For the same compound, the “level … of chemical substance/in its absence” value (gene YCR048W) was 0.8, the “level … of chemical substance/in its absence” value (gene YCR098C) was 1.6 and the “level … of chemical substance/in its absence” value (gene YDL022W) was 1.4. For the same compound, the “The level of expressed mRNA in the presence of chemical substance/absence: YDL046W” value (gene YDL046W) was 1.6, the “The level of expressed mRNA in the presence of chemical substance/absence: YDL089W” value (gene YDL089W) was 1.1 and the “The level of expressed mRNA in the presence of chemical substance/absence: YDL173W” value (gene YDL173W) was 1.8. For the same compound, the “The level of expressed mRNA in the presence of chemical substance/absence: YDL193W” value (gene YDL193W) was 1.4, the “The level of expressed mRNA in the presence of chemical substance/absence: YDL233W” value (gene YDL233W) was 1.4 and the “level … of chemical substance/in its absence” value (gene YDR009W) was 1.0. The “level … of chemical substance/in its absence” value (gene YDR019C) was 1.6, the “The level of expressed mRNA in the presence of chemical substance/absence: YDR071C” value (gene YDR071C) was 1.6 and the “The level of expressed mRNA in the presence of chemical substance/absence: YDR078C” value (gene YDR078C) was 1.2. The “The level of expressed mRNA in the presence of chemical substance/absence: YDR090C” value (gene YDR090C) was 1.1, the “The level of expressed mRNA in the presence of chemical substance/absence: YDR109C” value (gene YDR109C) was 0.9 and the “The level of expressed mRNA in the presence of chemical substance/absence: YDR128W” value (gene YDR128W) was 0.9.
